# Target: human-KAT6A (MYST domain 507-778 aa) (Homo sapiens (Human), UniProt Q92794)
# Assay: KAT6A biochemical assay (TR-FRET)
# Conditions: @ 1 μM; reported where IC50 could not be determined; read-out: Percent inhibition at specific concentration (KAT6A)
# Outline: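 KAT6A MYST domain preincubated with compound 30 min at 25° C, then reacted 60 min at 25° C with 200 nM biotin-H4 peptide and 600 nM acetyl-CoA (final). Europium anti-acetyl-lysine/streptavidin-APC TR-FRET read (Ex 340, Em 615/665 nm); % inhibition from 665/615 ratio, IC50 by sigmoidal fit.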
# Sequence of human-KAT6A (MYST domain 507-778 aa) (Q92794 507-778): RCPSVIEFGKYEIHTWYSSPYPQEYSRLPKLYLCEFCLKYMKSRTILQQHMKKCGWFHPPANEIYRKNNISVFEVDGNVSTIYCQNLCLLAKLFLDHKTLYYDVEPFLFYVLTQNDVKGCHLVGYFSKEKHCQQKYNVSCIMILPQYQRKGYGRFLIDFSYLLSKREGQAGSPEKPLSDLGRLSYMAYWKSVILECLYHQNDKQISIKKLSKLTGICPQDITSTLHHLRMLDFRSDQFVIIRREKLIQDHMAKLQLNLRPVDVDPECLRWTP
row,inhibition at 1 µM,Compound
1,25%,"COc1ccc(C(C)(C)C)cc1S(=O)(=O)NC(=O)c1ccc(Cn2cccn2)c(=O)n1C [Compound 278, 5-((1H-pyrazol-1-yl)methyl)-N-((5-(tert-butyl)-2-methoxyphenyl)sulfonyl)-1-methyl-6-oxo-1,6-dihydropyridine-2-carboxamide]"
2,47%,"CN=S(=O)(NC(=O)c1ccc(Cn2cccn2)c(OC)c1)c1c(OC)cccc1OC (stereo not shown) [Compound 292, 4-((1H-pyrazol-1-yl)methyl)-N-((2,6-dimethoxyphenyl)(methylamino)(oxo)-16-sulfaneylidene)-3-methoxybenzamide]"

# Same assay, conditions: TR-FRET; histone H4 peptide 200 nM, acetyl-CoA 600 nM; read-out: KAT6A IC50
row,IC50,Compound
1,34 nM,"COc1ccc(C2CC2)cc1S(=O)(=O)NC(=O)c1ncc(Cn2cccn2)c(OC)n1 [Compound 273, 5-((1H-pyrazol-1-yl)methyl)-N-((5-cyclopropyl-2-methoxyphenyl)sulfonyl)-4-methoxypyrimidine-2-carboxamide]"
2,30 nM,"COc1cccc(OC)c1S(=O)(=O)NC(=O)c1ncc(Cn2cccn2)c(OC)n1 [Compound 274, 5-((1H-pyrazol-1-yl)methyl)-N-((2,6-dimethoxyphenyl)sulfonyl)-4-methoxypyrimidine-2-carboxamide]"
3,10 nM,"COc1cc(C)cc(OC)c1S(=O)(=O)NC(=O)c1ccc(Cn2cccn2)c(OC)n1 [Compound 275, 5-((1H-pyrazol-1-yl)methyl)-N-((2,6-dimethoxy-4-methylphenyl)sulfonyl)-6-methoxypicolinamide]"
4,14 nM,"COc1cccc(OC2CC2)c1S(=O)(=O)NC(=O)c1ccc(Cn2cccn2)c(OC)n1 [Compound 279, 5-((1H-pyrazol-1-yl)methyl)-N-((2-cyclopropoxy-6-methoxyphenyl)sulfonyl)-6-methoxypicolinamide]"
5,5 nM,"COc1nc(C(=O)NS(=O)(=O)c2cc(C(C)(C)C)cc3c2OCC3)ccc1Cn1cccn1 [Compound 280, 5-((1H-pyrazol-1-yl)methyl)-N-((5-(tert-butyl)-2,3-dihydrobenzofuran-7-yl)sulfonyl)-6-methoxypicolinamide]"
6,10 nM,"COc1ccc2c(c1S(=O)(=O)NC(=O)c1ccc(Cn3cccn3)c(OC)n1)OCO2 [Compound 281, 5-((1H-pyrazol-1-yl)methyl)-6-methoxy-N-((5-methoxybenzo[d][1,3]dioxol-4-yl)sulfonyl)picolinamide]"
7,14 nM,"COc1cc(F)cc(OC)c1S(=O)(=O)NC(=O)c1ccc(Cn2cccn2)c(OC)n1 [Compound 282, 5-((1H-pyrazol-1-yl)methyl)-N-((4-fluoro-2,6-dimethoxyphenyl)sulfonyl)-6-methoxypicolinamide]"
8,10 nM,"COc1cc(Cl)cc(OC)c1S(=O)(=O)NC(=O)c1ccc(Cn2cccn2)c(OC)n1 [Compound 283, 5-((1H-pyrazol-1-yl)methyl)-N-((4-chloro-2,6-dimethoxyphenyl)sulfonyl)-6-methoxypicolinamide]"
9,10 nM,"CCOc1ccc(CC)c(OC)c1S(=O)(=O)NC(=O)c1ccc(Cn2cccn2)c(OC)n1 [Compound 284, 5-((1H-pyrazol-1-yl)methyl)-N-((6-ethoxy-3-ethyl-2-methoxyphenyl)sulfonyl)-6-methoxypicolinamide]"
10,6 nM,"COc1cc(Br)cc(OC)c1S(=O)(=O)NC(=O)c1ccc(Cn2cccn2)c(OC)n1 [Compound 285, 5-((1H-pyrazol-1-yl)methyl)-N-((4-bromo-2,6-dimethoxyphenyl)sulfonyl)-6-methoxypicolinamide]"
11,11 nM,"COc1cc(C)c(S(=O)(=O)NC(=O)c2ccc(Cn3cccn3)c(OC)n2)c(OC)c1 [Compound 286, 5-((1H-pyrazol-1-yl)methyl)-N-((2,4-dimethoxy-6-methylphenyl)sulfonyl)-6-methoxypicolinamide]"
12,11 nM,"COc1nc(C(=O)NS(=O)(=O)c2cc(C(F)(F)F)cc3c2OCC3)ccc1Cn1cccn1 [Compound 287, 5-((1H-pyrazol-1-yl)methyl)-6-methoxy-N-((5-(trifluoromethyl)-2,3-dihydrobenzofuran-7-yl)sulfonyl)picolinamide]"
13,8 nM,"COc1cc(F)c(S(=O)(=O)NC(=O)c2ccc(Cn3cccn3)c(OC)n2)c(OC)c1 [Compound 288, 5-((1H-pyrazol-1-yl)methyl)-N-((2-fluoro-4,6-dimethoxyphenyl)sulfonyl)-6-methoxypicolinamide]"
14,19 nM,"CCOc1nc(C(=O)NS(=O)(=O)c2c(OC)cccc2OC)ccc1Cn1cccn1 [Compound 289, 5-((1H-pyrazol-1-yl)methyl)-N-((2,6-dimethoxyphenyl)sulfonyl)-6-ethoxypicolinamide]"
15,14 nM,"COc1ccc(C(C)(C)CO)cc1[S@](=N)(=O)NC(=O)c1ccc(Cn2cccn2)c(OC)n1 [Compound 290a, (R)-5-((1H-pyrazol-1-yl)methyl)-N-(5-(1-hydroxy-2-methylpropan-2-yl)-2-methoxyphenylsulfonimidoyl)-6-methoxypicolinamide]"
16,33 nM,"COc1ccc(C(C)(C)CO)cc1[S@@](=N)(=O)NC(=O)c1ccc(Cn2cccn2)c(OC)n1 [Compound 290b, (S)-5-((1H-pyrazol-1-yl)methyl)-N-(5-(1-hydroxy-2-methylpropan-2-yl)-2-methoxyphenylsulfonimidoyl)-6-methoxypicolinamide]"
17,93 nM,"COc1cc(C(=O)N[S@@](=N)(=O)c2cc(C(C)(C)CO)ccc2OC)ccc1Cn1cccn1 [Compound 291a, (R)-4-((1H-pyrazol-1-yl)methyl)-N-(5-(1-hydroxy-2-methylpropan-2-yl)-2-methoxyphenylsulfonimidoyl)-3-methoxybenzamide]"
18,9 nM,"COc1cc(C(=O)N[S@](=N)(=O)c2cc(C(C)(C)CO)ccc2OC)ccc1Cn1cccn1 [Compound 291b, (S)-4-((1H-pyrazol-1-yl)methyl)-N-(5-(1-hydroxy-2-methylpropan-2-yl)-2-methoxyphenylsulfonimidoyl)-3-methoxybenzamide]"
19,374 nM,"COc1ccc(Cl)c(OC)c1[S@](=N)(=O)NC(=O)c1ccc(Cn2cccn2)c(OC)n1 [Compound 293a, (R)-5-((1H-pyrazol-1-yl)methyl)-N-(3-chloro-2,6-dimethoxyphenylsulfonimidoyl)-6-methoxypicolinamide]"
20,16 nM,"COc1ccc(Cl)c(OC)c1[S@@](=N)(=O)NC(=O)c1ccc(Cn2cccn2)c(OC)n1 [Compound 293b, (S)-5-((1H-pyrazol-1-yl)methyl)-N-(3-chloro-2,6-dimethoxyphenylsulfonimidoyl)-6-methoxypicolinamide]"
21,271 nM,"CCOc1cccc(OC)c1[S@](=N)(=O)NC(=O)c1ccc(Cn2cccn2)c(OC)n1 [Compound 294a, (R)-5-((1H-pyrazol-1-yl)methyl)-N-(2-ethoxy-6-methoxyphenylsulfonimidoyl)-6-methoxypicolinamide]"
22,22 nM,"CCOc1cccc(OC)c1[S@@](=N)(=O)NC(=O)c1ccc(Cn2cccn2)c(OC)n1 [Compound 294b, (S)-5-((1H-pyrazol-1-yl)methyl)-N-(2-ethoxy-6-methoxyphenylsulfonimidoyl)-6-methoxypicolinamide]"
23,16 nM,"COc1cc(C(=O)N[S@@](=N)(=O)c2c(OC)cccc2OC)ccc1Cn1cccn1 [Compound 295a, (R)-4-((1H-pyrazol-1-yl)methyl)-N-(2,6-dimethoxyphenylsulfonimidoyl)-3-methoxybenzamide]"
24,271 nM,"COc1cc(C(=O)N[S@](=N)(=O)c2c(OC)cccc2OC)ccc1Cn1cccn1 [Compound 295b, (S)-4-((1H-pyrazol-1-yl)methyl)-N-(2,6-dimethoxyphenylsulfonimidoyl)-3-methoxybenzamide]"
25,16 nM,"COc1cc(OC)c([S@](=N)(=O)NC(=O)c2ccc(Cn3cccn3)c(OC)n2)c(OC)c1 [Compound 296a, (R)-5-((1H-pyrazol-1-yl)methyl)-6-methoxy-N-(2,4,6-trimethoxyphenylsulfonimidoyl)picolinamide]"
26,677 nM,"COc1cc(OC)c([S@@](=N)(=O)NC(=O)c2ccc(Cn3cccn3)c(OC)n2)c(OC)c1 [Compound 296b, (S)-5-((1H-pyrazol-1-yl)methyl)-6-methoxy-N-(2,4,6-trimethoxyphenylsulfonimidoyl)picolinamide]"
27,15 nM,"COc1cc(OC)c([S@](=N)(=O)NC(=O)c2ccc(Cn3cccn3)c(OC)c2)c(OC)c1 [Compound 299a, (R)-4-((1H-pyrazol-1-yl)methyl)-3-methoxy-N-(2,4,6-trimethoxyphenylsulfonimidoyl)benzamide]"
28,226 nM,"COc1cc(OC)c([S@@](=N)(=O)NC(=O)c2ccc(Cn3cccn3)c(OC)c2)c(OC)c1 [Compound 299b, (S)-4-((1H-pyrazol-1-yl)methyl)-3-methoxy-N-(2,4,6-trimethoxyphenylsulfonimidoyl)benzamide]"
29,125 nM,"COc1cccc(OC)c1[S@](=N)(=O)NC(=O)c1ccc(Cn2cccn2)c(OC(F)(F)F)c1 [Compound 300a, (R)-4-((1H-pyrazol-1-yl)methyl)-N-(2,6-dimethoxyphenylsulfonimidoyl)-3-(trifluoromethoxy)benzamide]"
30,18 nM,"COc1cccc(OC)c1[S@@](=N)(=O)NC(=O)c1ccc(Cn2cccn2)c(OC(F)(F)F)c1 [Compound 300b, (S)-4-((1H-pyrazol-1-yl)methyl)-N-(2,6-dimethoxyphenylsulfonimidoyl)-3-(trifluoromethoxy)benzamide]"

row,Compound,IC50
1,"COc1cccc(OC2CCC2)c1[S@](=N)(=O)NC(=O)c1ccc(Cn2cccn2)c(OC)n1 [Compound 298a, (R)-5-((1H-pyrazol-1-yl)methyl)-N-(2-cyclobutoxy-6-methoxyphenylsulfonimidoyl)-6-methoxypicolinamide]",23 nM
2,"COc1cccc(OC2CCC2)c1[S@@](=N)(=O)NC(=O)c1ccc(Cn2cccn2)c(OC)n1 [Compound 298b, (S)-5-((1H-pyrazol-1-yl)methyl)-N-(2-cyclobutoxy-6-methoxyphenylsulfonimidoyl)-6-methoxypicolinamide]",511 nM

# Source: patent publication US20250136553A1, “ACYLSULFONAMIDE KAT6A INHIBITORS” (Olema Pharmaceuticals, Inc., priority 2023, published 2025)
